Series [1] can be described thus: MTT viability assay, A549 cells. Particulars: human. How it is done:
Cell viability is expressed as percentage with respect to the control (cells not treated with the peptides). Data points represent the mean of triplicate samples ±SEM. […] The levels of statistical significance between the two peptides are indicated as follows: **p<0.01, ***p<0.001.
Cells were plated in wells of a microtiter plate, at 4×10^4 cells/well in DMEM supplemented with 2 mM glutamine and 2% FBS (for A549 cells) or DMEM containing 2 mM glutamine, non-essential amino acids (NEAA), sodium pyruvate and 2% FBS (for Raw 264.7 macrophages). After overnight incubation at 37° C. in a 5% CO2 atmosphere, the medium was replaced with 100 μl fresh serum-free medium supplemented with the peptides at different concentrations. After 24 h of peptide treatment, cell viability was determined by a MTT assay.

The subject of another series is P. aeruginosa R1 biofilm. Particulars: 4 μM, 2 hours treatment. How it is done:
(§1) Data points are the mean±SEM of three independent experiments. The levels of statistically significant differences between the two peptides are indicated as follows *P<0.05, **P<0.01, ***P<0.001
(§2) The reference strain and the clinical isolates were grown at 37° C. in Luria-Bertani broth (LB) to mid-log phase (optical density of 0.8 at 590 nm). With the help of tweezers, silicone hydrogel narafilcon A soft CL (1-Day ACUVUE TruEye) were removed from the manufacturer's containers, and washed thrice in phosphate buffered saline (PBS). The lenses were then immersed into wells of a 24-multiwell plate, each well containing 1 mL of bacterial inoculum in 1/10 LB at a concentration of 5×10^4 colony-forming units (CFU)/mL. Noteworthy, the number of bacteria isolated from CL storage cases has been reported to range from 1 to 6×10^4 CFU/case (2, 10). Therefore, in order to reproduce a more realistic level of bacteria to which CLs can be exposed, an inoculum size of 5×10^4 CFU/mL was used for biofilm formation.
(§3) The plate was then incubated in a humidified incubator at 37° C. at 125 rpm to allow biofilm formation on the surface of both lens sides. After 20 hours of incubation, each lens was washed thrice with PBS to remove any non-adherent planktonic cells.
(§4) The lenses were then transferred into wells of a new 24-multiwell plate, each well containing serial dilutions of Esc-1a(1-21)NH2 and Esc-1a(1-21)-1cNH2 in PBS. For […] controls, the lenses were immersed in sterile PBS. The new plate was then incubated at 37° C. for 2 hours with gentle shaking (125 rpm). After peptide treatment, each lens was washed thrice in PBS and transferred into wells of another 24-multiwell plate, each well containing 350 μL of 0.5 mg/mL of 3-(4,5-dimethylthiazol-2-yl)-2,5-diphenyltetrazolium bromide (MTT, from Sigma Aldrich, Milan, Italy) in Hank's solution (136 mM NaCl; 0.34 mM Na2HPO4; 0.44 mMKH2PO4; 5.4 mM KCl; 4.1 mM NaHCO3 pH 7.2, supplemented with 5.5 mM D-glucose) as previously reported (8). The killing of biofilms was determined as a function of the inhibition of MTT reduction to insoluble formazan crystals by bacterial reductases. The plate was incubated again for 2 hours (125 rpm) at 37° C. Formazan crystals were solubilized by the addition of acidified isopropanol. During overnight incubation at room temperature the resulting purple color was absorbed by the lens. Afterward, each lens was soaked in absolute ethanol (500 μL in each well) to decolor it. Aliquots of 100 μL were finally transferred to the wells of a 96-multiwell plate and absorbance was measured at 590 nm using a microplate reader (Infine M 200, Tecan). Untreated bacterial cells in PBS were the control. Percentage of killing was calculated according to the formula: [1−(Abs of treated samples−Abs of blank/Abs of control samples-Abs of blank)][…], where the blank was the solvent PBS.

In series [2] the test system is P. aeruginosa ATCC 27853 biofilm. Particulars: 2 hours treatment. The procedure:
as §1, §2, §3, §4

In series [3] the test system is TNF-α secretion from LPS-stimulated RAW264.7 macrophages. The series can be described thus: Anti-endotoxin activity: TNF-α release from LPS-stimulated macrophages (ELISA). The format is cell-based, murine. Particulars: LPS 10 ng/ml, 4 hours. How it is done:
RAW264.7 cells were stimulated with LPS (10 ng/ml) derived from P. aeruginosa 10 in the presence of 1, 5, 10 and 20 μM Esc-1a(1-21)NH2 for 4 hours at 37° C. and 5% CO2. The percentage of inhibition of TNF-α release was normalized to that of macrophages stimulated with LPS without peptide (0% inhibition).
Macrophages (Raw 264.7) were cultured overnight in 96-well plates (1×10^5 cells/well) in DMEM supplemented with 2 mM L-glutamine, 1 mM sodium pyruvate, non-essential amino acids (NEAA), and 10% FBS. The medium was then removed and replaced with fresh medium containing LPS (10 ng/ml final concentration) and the peptide at different concentrations. Cells were incubated at 37° C. for 4 h, after which the medium was collected and TNF-α concentration in the samples was evaluated using a mouse TNF-α enzyme-linked immunosorbant assay kit according to the manufacturer's protocol (ELISA, Biosource). Cells that were stimulated with LPS alone, and untreated cells served as controls. All experiments were done in triplicate.

Results on 1 molecule are retold here after US11110195B2, “Esculentin 1a derivatives and uses thereof” (University of Houston System, priority 2013, dated 2021).

Like-named read-outs stand apart in the source and are kept apart here. Residues, ends and D or L forms follow the SMILES beside them.

Consider `CC[C@H](C)[C@H](NC(=O)CN)C(=O)N[C@@H](Cc1ccccc1)C(=O)N[C@@H](CO)C(=O)N[C@@H](CCCCN)C(=O)N[C@@H](CC(C)C)C(=O)N[C@@H](C)C(=O)NCC(=O)N[C@@H](CCCCN)C(=O)N[C@@H](CCCCN)C(=O)N[C@H](C(=O)N[C@@H](CCCCN)C(=O)N[C@@H](CC(N)=O)C(=O)N[C@@H](CC(C)C)C(=O)N[C@@H](CC(C)C)C(=O)N[C@H](C(=O)N[C@@H](CO)C(=O)NCC(=O)N[C@@H](CC(C)C)C(=O)N[C@@H](CCCCN)C(=O)NCC(N)=O)[C@@H](C)CC)[C@@H](C)CC` [Esc-1a(1-21)NH2] (H-GIFSKLAGKKIKNLLISGLKG-NH2; N-terminus assumed), for which, in series [1], it took 150 µM to reach half-maximal cytotoxicity (CC50 at 24 h). In addition, the biofilm killing is reported as 0% in the series with P. aeruginosa R1 biofilm, “activity was lost” in series [2] (4 μM) and “more than 50%” in series [2] (32 μM). For the same molecule, the “inhibition of TNF-α secretion” value in series [3] (10 μM peptide) is reported as roughly 80%; in series [3] (20 μM peptide) it was roughly 90%.
